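Briefly, cells in 96-well plates were exposed to five compound concentrations for 48 h, and endpoints were estimated by linear interpolation. Abbreviation: GI50, concentration required for 50% inhibition of growth. At the TGI there is no net growth.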
How the values were obtained:
Experiment in all cases: inhibition of tumour cell growth, NCI panel, 48 h
786-0 renal = tested on: 786-0 renal
A498 renal = tested on: A498 renal
A549 NSCLC = tested on: A549 NSCLC
ACHN renal = tested on: ACHN renal
CAKI-1 renal = tested on: CAKI-1 renal
CCRF-CEM leukemia = tested on: CCRF-CEM leukemia
COLO 205 colon = tested on: COLO 205 colon
DLD-1 colon = tested on: DLD-1 colon
DMS 114 small cell lung = tested on: DMS 114 small cell lung
DMS 273 small cell lung = tested on: DMS 273 small cell lung
HCT-116 colon = tested on: HCT-116 colon
HCT-15 colon = tested on: HCT-15 colon
HL-60(TB) leukemia = tested on: HL-60(TB) leukemia
HOP-18 NSCLC = tested on: HOP-18 NSCLC
HOP-62 NSCLC = tested on: HOP-62 NSCLC
HOP-92 NSCLC = tested on: HOP-92 NSCLC
HT29 colon = tested on: HT29 colon
IGROV1 ovarian = tested on: IGROV1 ovarian
K-562 leukemia = tested on: K-562 leukemia
KM12 colon = tested on: KM12 colon
LOX IMVI melanoma = tested on: LOX IMVI melanoma
LXFL 529 NSCLC = tested on: LXFL 529 NSCLC
M14 melanoma = tested on: M14 melanoma
M19-MEL melanoma = tested on: M19-MEL melanoma
MALME-3M melanoma = tested on: MALME-3M melanoma
MOLT-4 leukemia = tested on: MOLT-4 leukemia
NCI-H226 lung = tested on: NCI-H226 lung
NCI-H23 lung = tested on: NCI-H23 lung
NCI-H460 lung = tested on: NCI-H460 lung
NCI-H522 lung = tested on: NCI-H522 lung
OVCAR-4 ovarian = tested on: OVCAR-4 ovarian
OVCAR-5 ovarian = tested on: OVCAR-5 ovarian
OVCAR-8 ovarian = tested on: OVCAR-8 ovarian
RPMI-8226 leukemia = tested on: RPMI-8226 leukemia
RXF 393 renal = tested on: RXF 393 renal
SF-268 CNS = tested on: SF-268 CNS
SF-295 CNS = tested on: SF-295 CNS
SF-539 CNS = tested on: SF-539 CNS
SK-MEL-2 melanoma = tested on: SK-MEL-2 melanoma
SK-MEL-28 melanoma = tested on: SK-MEL-28 melanoma
SK-MEL-5 melanoma = tested on: SK-MEL-5 melanoma
SK-OV-3 ovarian = tested on: SK-OV-3 ovarian
SN12C renal = tested on: SN12C renal
SNB-75 CNS = tested on: SNB-75 CNS
SR leukemia = tested on: SR leukemia
SW-620 colon = tested on: SW-620 colon
TK-10 renal = tested on: TK-10 renal
U251 CNS = tested on: U251 CNS
UACC-257 melanoma = tested on: UACC-257 melanoma
UACC-62 melanoma = tested on: UACC-62 melanoma
UO-31 renal = tested on: UO-31 renal
EKVX NSCLC = tested on: EKVX NSCLC
HCC-2998 colon = tested on: HCC-2998 colon
OVCAR-3 ovarian = tested on: OVCAR-3 ovarian
SNB-19 CNS = tested on: SNB-19 CNS
SNB-78 CNS = tested on: SNB-78 CNS

In the case of `Cc1nc2ccccc2c(=O)n1NC(=S)Nc1ccccc1`, the TGI (786-0 renal) is reported as > 100 µM, the TGI (A498 renal) is reported as > 100 µM and the TGI (A549 NSCLC) is reported as > 100 µM. The TGI (ACHN renal) was > 100 µM, the TGI (CAKI-1 renal) was > 100 µM and the TGI (CCRF-CEM leukemia) was > 100 µM. The TGI (COLO 205 colon) was > 100 µM, the TGI (DLD-1 colon) was > 100 µM and the TGI (DMS 114 small cell lung) was > 100 µM. The TGI (DMS 273 small cell lung) was > 100 µM, the TGI (HCT-116 colon) was > 100 µM and the TGI (HCT-15 colon) was > 100 µM. The TGI (HL-60(TB) leukemia) was > 100 µM, the TGI (HOP-18 NSCLC) was > 100 µM and the TGI (HOP-62 NSCLC) was > 100 µM. For the same compound, the TGI (HOP-92 NSCLC) was > 100 µM, the TGI (HT29 colon) was > 100 µM and the TGI (IGROV1 ovarian) was > 100 µM. The TGI (K-562 leukemia) was > 100 µM, the TGI (KM12 colon) was > 100 µM and the TGI (LOX IMVI melanoma) was > 100 µM. For the same compound, the TGI (LXFL 529 NSCLC) was > 100 µM, the TGI (M14 melanoma) was > 100 µM and the TGI (M19-MEL melanoma) was > 100 µM. For the same compound, the TGI (MALME-3M melanoma) was > 100 µM, the TGI (MOLT-4 leukemia) was > 100 µM and the TGI (NCI-H226 lung) was > 100 µM. The TGI (NCI-H23 lung) was > 100 µM, the TGI (NCI-H460 lung) was > 100 µM and the TGI (NCI-H522 lung) was > 100 µM. For the same compound, the TGI (OVCAR-4 ovarian) was > 100 µM, the TGI (OVCAR-5 ovarian) was > 100 µM and the TGI (OVCAR-8 ovarian) was > 100 µM. For the same compound, the TGI (RPMI-8226 leukemia) was > 100 µM, the TGI (RXF 393 renal) was > 100 µM and the TGI (SF-268 CNS) was > 100 µM. The TGI (SF-295 CNS) was > 100 µM, the TGI (SF-539 CNS) was > 100 µM and the TGI (SK-MEL-2 melanoma) was > 100 µM. For the same compound, the TGI (SK-MEL-28 melanoma) was > 100 µM, the TGI (SK-MEL-5 melanoma) was > 100 µM and the TGI (SK-OV-3 ovarian) was > 100 µM. For the same compound, the TGI (SN12C renal) was > 100 µM, the TGI (SNB-75 CNS) was > 100 µM and the TGI (SR leukemia) was > 100 µM. For the same compound, the TGI (SW-620 colon) was > 100 µM, the TGI (TK-10 renal) was > 100 µM and the TGI (U251 CNS) was > 100 µM. For the same compound, the TGI (UACC-257 melanoma) was > 100 µM, the TGI (UACC-62 melanoma) was > 100 µM and the TGI (UO-31 renal) was > 100 µM.

In the case of `N.N.NCCCCCCN.O=C([O-])CCl.O=C([O-])CCl.O=C([O-])CCl.O=C([O-])CCl.[Pt+4].[Pt+4]`, the GI50 (786-0 renal) is reported as > 50 µM, the TGI (786-0 renal) is reported as > 50 µM and the GI50 (A498 renal) is reported as > 50 µM. For the same compound, the TGI (A498 renal) was > 50 µM, the GI50 (A549 NSCLC) was > 50 µM and the TGI (A549 NSCLC) was > 50 µM. For the same compound, the GI50 (ACHN renal) was 35.9 µM, the TGI (ACHN renal) was > 50 µM and the GI50 (CAKI-1 renal) was 24.7 µM. The TGI (CAKI-1 renal) was > 50 µM, the GI50 (CCRF-CEM leukemia) was 2.73 µM and the TGI (CCRF-CEM leukemia) was > 50 µM. For the same compound, the GI50 (COLO 205 colon) was 9.54 µM, the TGI (COLO 205 colon) was > 50 µM and the GI50 (DLD-1 colon) was > 50 µM. The TGI (DLD-1 colon) was > 50 µM, the GI50 (DMS 273 small cell lung) was > 50 µM and the TGI (DMS 273 small cell lung) was > 50 µM. For the same compound, the GI50 (EKVX NSCLC) was > 50 µM, the TGI (EKVX NSCLC) was > 50 µM and the GI50 (HCC-2998 colon) was > 50 µM. The TGI (HCC-2998 colon) was > 50 µM, the GI50 (HCT-116 colon) was > 50 µM and the TGI (HCT-116 colon) was > 50 µM. For the same compound, the GI50 (HCT-15 colon) was > 50 µM, the TGI (HCT-15 colon) was > 50 µM and the GI50 (HL-60(TB) leukemia) was 15.5 µM. The TGI (HL-60(TB) leukemia) was > 50 µM, the GI50 (HOP-18 NSCLC) was > 50 µM and the TGI (HOP-18 NSCLC) was > 50 µM. For the same compound, the GI50 (HOP-62 NSCLC) was 6.04 µM, the TGI (HOP-62 NSCLC) was > 50 µM and the GI50 (HT29 colon) was 37.1 µM. For the same compound, the TGI (HT29 colon) was > 50 µM, the GI50 (IGROV1 ovarian) was > 50 µM and the TGI (IGROV1 ovarian) was > 50 µM. The GI50 (K-562 leukemia) was > 50 µM, the TGI (K-562 leukemia) was > 50 µM and the GI50 (KM12 colon) was > 50 µM. The TGI (KM12 colon) was > 50 µM, the GI50 (LOX IMVI melanoma) was > 50 µM and the TGI (LOX IMVI melanoma) was > 50 µM. The GI50 (LXFL 529 NSCLC) was > 50 µM, the TGI (LXFL 529 NSCLC) was > 50 µM and the GI50 (M14 melanoma) was > 50 µM. The TGI (M14 melanoma) was > 50 µM, the GI50 (MALME-3M melanoma) was > 50 µM and the TGI (MALME-3M melanoma) was > 50 µM. For the same compound, the GI50 (MOLT-4 leukemia) was 1.73 µM, the TGI (MOLT-4 leukemia) was > 50 µM and the GI50 (NCI-H226 lung) was 17 µM. The TGI (NCI-H226 lung) was > 50 µM, the GI50 (NCI-H23 lung) was 27.1 µM and the TGI (NCI-H23 lung) was > 50 µM. For the same compound, the GI50 (NCI-H460 lung) was 3.11 µM, the TGI (NCI-H460 lung) was > 50 µM and the GI50 (NCI-H522 lung) was 10.9 µM. For the same compound, the TGI (NCI-H522 lung) was > 50 µM, the GI50 (OVCAR-3 ovarian) was > 50 µM and the TGI (OVCAR-3 ovarian) was > 50 µM. For the same compound, the GI50 (OVCAR-4 ovarian) was > 50 µM, the TGI (OVCAR-4 ovarian) was > 50 µM and the GI50 (OVCAR-5 ovarian) was > 50 µM. For the same compound, the TGI (OVCAR-5 ovarian) was > 50 µM, the GI50 (OVCAR-8 ovarian) was > 50 µM and the TGI (OVCAR-8 ovarian) was > 50 µM. For the same compound, the GI50 (RPMI-8226 leukemia) was > 50 µM, the TGI (RPMI-8226 leukemia) was > 50 µM and the GI50 (RXF 393 renal) was 13.1 µM. For the same compound, the TGI (RXF 393 renal) was > 50 µM, the GI50 (SF-268 CNS) was 18.8 µM and the TGI (SF-268 CNS) was > 50 µM. For the same compound, the GI50 (SF-295 CNS) was > 50 µM, the TGI (SF-295 CNS) was > 50 µM and the GI50 (SF-539 CNS) was 45.2 µM. For the same compound, the TGI (SF-539 CNS) was > 50 µM, the GI50 (SK-MEL-2 melanoma) was > 50 µM and the TGI (SK-MEL-2 melanoma) was > 50 µM. The GI50 (SK-MEL-28 melanoma) was > 50 µM, the TGI (SK-MEL-28 melanoma) was > 50 µM and the GI50 (SK-MEL-5 melanoma) was > 50 µM. The TGI (SK-MEL-5 melanoma) was > 50 µM, the GI50 (SK-OV-3 ovarian) was > 50 µM and the TGI (SK-OV-3 ovarian) was > 50 µM. For the same compound, the GI50 (SN12C renal) was 3.74 µM, the TGI (SN12C renal) was > 50 µM and the GI50 (SNB-19 CNS) was 27.8 µM. For the same compound, the TGI (SNB-19 CNS) was > 50 µM, the GI50 (SNB-75 CNS) was 8.34 µM and the TGI (SNB-75 CNS) was > 50 µM. For the same compound, the GI50 (SNB-78 CNS) was > 50 µM, the TGI (SNB-78 CNS) was > 50 µM and the GI50 (SR leukemia) was 8.23 µM. The TGI (SR leukemia) was > 50 µM, the GI50 (SW-620 colon) was > 50 µM and the TGI (SW-620 colon) was > 50 µM. For the same compound, the GI50 (TK-10 renal) was > 50 µM, the TGI (TK-10 renal) was > 50 µM and the GI50 (U251 CNS) was 25.2 µM. The TGI (U251 CNS) was > 50 µM, the GI50 (UACC-257 melanoma) was > 50 µM and the TGI (UACC-257 melanoma) was > 50 µM. For the same compound, the GI50 (UO-31 renal) was > 50 µM and the TGI (UO-31 renal) was > 50 µM.

From PubChem BioAssay (NCI)
